Article PMC2192852 (The Journal of Experimental Medicine, 1996)
Where no end group is shown, it is not given here. [ ]: non-standard residue; d: D form. Abu = CC[C@H](N)C(=O)O

Tested on: 3.L2 TCR
Assay: T cell hybridoma agonist assay: IL-2 production by the 3.L2.12 hybridoma
Format: cell-based
Conditions: Fig. 6, single agonist assay, representative of at least three experiments

Row | Substance | Concentration at which peptide is active (IL-2 production)
1 | GKKVITAFNEGLK [Hb(64-76), reference compound] | 0.01 µM

Tested on: 3.L2 TCR
Assay: not given
Format: cell-based
Conditions: Fig. 3; CH27 prepulsed with 0.1 µM Hb(64-76)

Row | Substance | Concentration at which slight inhibition of the 3.L2.12 response was seen
2 | GKKVITAFDEGLK [D72] | > 100 µM
3 | GKKVITAFMEGLK [M72] | > 100 µM
4 | GKKVITAFYEGLK [Y72] | > 100 µM

Tested on: CH27 B cell lymphoma
Assay: not given
Format: cell-based
Conditions: Fig. 4; from EC40 in apoptosis assay relative to wild-type peptide

Row | Substance | Relative Activity (Hb(64-76) arbitrarily assigned 100)
5 | GKKVITAFCEGLK [C72] | 2
6 | GKKVITAFNEGLK [Hb(64-76), reference compound] | 100
7 | GKKVITAFTEGLK [T72] | 2
8 | GKKVITAFVEGLK [V72] | 2
9 | GKKVITAF[Abu]EGLK [Abu72] | 5

Same assay, conditions: Fig. 5; 3.L2 clone, 24 h

Row | Substance | Induction of apoptosis of CH27
10 | GKKVITAFEEGLK [E72] | negative
11 | GKKVITAFGEGLK [G72] | did not induce any apoptosis
12 | GKKVITAFLEGLK [L72] | did not induce any apoptosis
13 | GKKVITAFSEGLK [$72] | did not induce any apoptosis
